Consider two compounds from ChEMBL document CHEMBL5303573, “Mapping human microbiome drug metabolism by gut bacteria and their genes” (Nature, 2019).

SMILES strings stand for the structures.

The first data set can be described thus: The drug is tested on Bacteroides sp. WH2 strain: WH2 for biotransformation. The drug concentrations were measured before and after a 12-h incubation by liquid-chromatography-coupled mass spectrometry (LC–MS). Particulars: bacteroides sp. wh2, 12 h, 2 µM.
Consider `CCC(C)n1ncn(-c2ccc(N3CCN(c4ccc(OCC5COC(Cn6cncn6)(c6ccc(Cl)cc6Cl)O5)cc4)CC3)cc2)c1=O` (stereo not given) [ITRACONAZOLE], for which the “Bacterial Biotransformation” value is given as “Compound NOT metabolized”.

Regarding `Cc1ccc(S(=O)(=O)NC(=O)NN2CC3CCCC3C2)cc1` (stereo not given) [GLICLAZIDE], the “Bacterial Biotransformation” value was “Compound NOT metabolized”.

A further data set can be described thus: The drug is tested on Bifidobacterium ruminantium strain: fecal isolate for biotransformation. The drug concentrations were measured before and after a 12-h incubation by liquid-chromatography-coupled mass spectrometry (LC–MS). Particulars: 2 µM.
Turning to `CCC(C)n1ncn(-c2ccc(N3CCN(c4ccc(OCC5COC(Cn6cncn6)(c6ccc(Cl)cc6Cl)O5)cc4)CC3)cc2)c1=O` (stereo not given) [ITRACONAZOLE], the “Bacterial Biotransformation” value is recorded as “Compound NOT metabolized”.

As to `Cc1ccc(S(=O)(=O)NC(=O)NN2CC3CCCC3C2)cc1` (stereo not given) [GLICLAZIDE], the “Bacterial Biotransformation” value was “Compound NOT metabolized”.

For a further data set the following is noted: akkermansia muciniphila, 12 h, 2 µM.
Description: The drug is tested on Akkermansia muciniphila strain: ATCC BAA-835 for biotransformation. The drug concentrations were measured before and after a 12-h incubation by liquid-chromatography-coupled mass spectrometry (LC–MS)
Regarding `CCC(C)n1ncn(-c2ccc(N3CCN(c4ccc(OCC5COC(Cn6cncn6)(c6ccc(Cl)cc6Cl)O5)cc4)CC3)cc2)c1=O` (stereo not given) [ITRACONAZOLE], the “Bacterial Biotransformation” value is reported as “Compound NOT metabolized”.

Regarding `Cc1ccc(S(=O)(=O)NC(=O)NN2CC3CCCC3C2)cc1` (stereo not given) [GLICLAZIDE], the “Bacterial Biotransformation” value is “Compound NOT metabolized”.

A further data set is described as follows: The drug is tested on Ruminococcus gnavus strain: ATCC29149 for biotransformation. The drug concentrations were measured before and after a 12-h incubation by liquid-chromatography-coupled mass spectrometry (LC–MS). Particulars: mediterraneibacter gnavus, 2 µM.
Turning to `CCC(C)n1ncn(-c2ccc(N3CCN(c4ccc(OCC5COC(Cn6cncn6)(c6ccc(Cl)cc6Cl)O5)cc4)CC3)cc2)c1=O` (stereo not given) [ITRACONAZOLE], the “Bacterial Biotransformation” value was “Compound NOT metabolized”.

With `Cc1ccc(S(=O)(=O)NC(=O)NN2CC3CCCC3C2)cc1` (stereo not given) [GLICLAZIDE], the “Bacterial Biotransformation” value is given as “Compound NOT metabolized”.

The conditions of a further data set: bacteroides intestinalis, 12 h, 2 µM.
Description: The drug is tested on Bacteroides intestinalis strain: DSM17393 for biotransformation. The drug concentrations were measured before and after a 12-h incubation by liquid-chromatography-coupled mass spectrometry (LC–MS)
For the compound `CCC(C)n1ncn(-c2ccc(N3CCN(c4ccc(OCC5COC(Cn6cncn6)(c6ccc(Cl)cc6Cl)O5)cc4)CC3)cc2)c1=O` (stereo not given) [ITRACONAZOLE], the “Bacterial Biotransformation” value is given as “Compound NOT metabolized”.

`Cc1ccc(S(=O)(=O)NC(=O)NN2CC3CCCC3C2)cc1` (stereo not given) [GLICLAZIDE]: the “Bacterial Biotransformation” value is “Compound NOT metabolized”.

A short description of a further data set: The drug is tested on Clostridium ramosum strain: DSM1402 for biotransformation. The drug concentrations were measured before and after a 12-h incubation by liquid-chromatography-coupled mass spectrometry (LC–MS). Conditions: thomasclavelia ramosa, 2 µM.
`CCC(C)n1ncn(-c2ccc(N3CCN(c4ccc(OCC5COC(Cn6cncn6)(c6ccc(Cl)cc6Cl)O5)cc4)CC3)cc2)c1=O` (stereo not given) [ITRACONAZOLE]: the “Bacterial Biotransformation” value is “Compound NOT metabolized”.

In the case of `Cc1ccc(S(=O)(=O)NC(=O)NN2CC3CCCC3C2)cc1` (stereo not given) [GLICLAZIDE], the “Bacterial Biotransformation” value is given as “Compound NOT metabolized”.

Another data set can be described thus: The drug is tested on Bifidobacterium longum subsp. Infantis strain: CCUG52486 for biotransformation. The drug concentrations were measured before and after a 12-h incubation by liquid-chromatography-coupled mass spectrometry (LC–MS). Particulars: 2 µM.
For `CCC(C)n1ncn(-c2ccc(N3CCN(c4ccc(OCC5COC(Cn6cncn6)(c6ccc(Cl)cc6Cl)O5)cc4)CC3)cc2)c1=O` (stereo not given) [ITRACONAZOLE], the “Bacterial Biotransformation” value is “Compound NOT metabolized”.

Consider `Cc1ccc(S(=O)(=O)NC(=O)NN2CC3CCCC3C2)cc1` (stereo not given) [GLICLAZIDE], for which the “Bacterial Biotransformation” value was “Compound NOT metabolized”.

The conditions of another data set: limosilactobacillus reuteri cf48-3a, 12 h, 2 µM.
Description: The drug is tested on Lactobacillus reuteri CF48-3A strain: BEI HM-102 for biotransformation. The drug concentrations were measured before and after a 12-h incubation by liquid-chromatography-coupled mass spectrometry (LC–MS)
As for `CCC(C)n1ncn(-c2ccc(N3CCN(c4ccc(OCC5COC(Cn6cncn6)(c6ccc(Cl)cc6Cl)O5)cc4)CC3)cc2)c1=O` (stereo not given) [ITRACONAZOLE], the “Bacterial Biotransformation” value is reported as “Compound NOT metabolized”.

As for `Cc1ccc(S(=O)(=O)NC(=O)NN2CC3CCCC3C2)cc1` (stereo not given) [GLICLAZIDE], the “Bacterial Biotransformation” value is “Compound NOT metabolized”.

A further data set in a line: The drug is tested on Bacteroides dorei strain: DSM17855 for biotransformation. The drug concentrations were measured before and after a 12-h incubation by liquid-chromatography-coupled mass spectrometry (LC–MS). Conditions: phocaeicola dorei, 2 µM.
In the case of `CCC(C)n1ncn(-c2ccc(N3CCN(c4ccc(OCC5COC(Cn6cncn6)(c6ccc(Cl)cc6Cl)O5)cc4)CC3)cc2)c1=O` (stereo not given) [ITRACONAZOLE], the “Bacterial Biotransformation” value is on record as “Compound NOT metabolized”.

For the compound `Cc1ccc(S(=O)(=O)NC(=O)NN2CC3CCCC3C2)cc1` (stereo not given) [GLICLAZIDE], the “Bacterial Biotransformation” value is given as “Compound metabolized”.

For a further data set the following is noted: roseburia intestinalis, 12 h, 2 µM.
Description: The drug is tested on Roseburia intestinalis strain: L1-82 for biotransformation. The drug concentrations were measured before and after a 12-h incubation by liquid-chromatography-coupled mass spectrometry (LC–MS)
In the case of `CCC(C)n1ncn(-c2ccc(N3CCN(c4ccc(OCC5COC(Cn6cncn6)(c6ccc(Cl)cc6Cl)O5)cc4)CC3)cc2)c1=O` (stereo not given) [ITRACONAZOLE], the “Bacterial Biotransformation” value was “Compound NOT metabolized”.

For `Cc1ccc(S(=O)(=O)NC(=O)NN2CC3CCCC3C2)cc1` (stereo not given) [GLICLAZIDE], the “Bacterial Biotransformation” value is given as “Compound NOT metabolized”.

The next data set in a line: The drug is tested on Eubacterium hallii strain: DSM3353 for biotransformation. The drug concentrations were measured before and after a 12-h incubation by liquid-chromatography-coupled mass spectrometry (LC–MS). Conditions: anaerobutyricum hallii, 2 µM.
As for `CCC(C)n1ncn(-c2ccc(N3CCN(c4ccc(OCC5COC(Cn6cncn6)(c6ccc(Cl)cc6Cl)O5)cc4)CC3)cc2)c1=O` (stereo not given) [ITRACONAZOLE], the “Bacterial Biotransformation” value was “Compound NOT metabolized”.

`Cc1ccc(S(=O)(=O)NC(=O)NN2CC3CCCC3C2)cc1` (stereo not given) [GLICLAZIDE]: the “Bacterial Biotransformation” value is on record as “Compound NOT metabolized”.

A short description of another data set: The drug is tested on Bacteroides xylanisolvens strain: DSM18836 for biotransformation. The drug concentrations were measured before and after a 12-h incubation by liquid-chromatography-coupled mass spectrometry (LC–MS). Conditions: 2 µM.
Regarding `CCC(C)n1ncn(-c2ccc(N3CCN(c4ccc(OCC5COC(Cn6cncn6)(c6ccc(Cl)cc6Cl)O5)cc4)CC3)cc2)c1=O` (stereo not given) [ITRACONAZOLE], the “Bacterial Biotransformation” value is on record as “Compound NOT metabolized”.

Regarding `Cc1ccc(S(=O)(=O)NC(=O)NN2CC3CCCC3C2)cc1` (stereo not given) [GLICLAZIDE], the “Bacterial Biotransformation” value is “Compound NOT metabolized”.

The conditions of a further data set: bacteroides thetaiotaomicron, 12 h, 2 µM.
Description: The drug is tested on Bacteroides thetaiotaomicron strain: 3731 for biotransformation. The drug concentrations were measured before and after a 12-h incubation by liquid-chromatography-coupled mass spectrometry (LC–MS)
For the compound `CCC(C)n1ncn(-c2ccc(N3CCN(c4ccc(OCC5COC(Cn6cncn6)(c6ccc(Cl)cc6Cl)O5)cc4)CC3)cc2)c1=O` (stereo not given) [ITRACONAZOLE], the “Bacterial Biotransformation” value is “Compound NOT metabolized”.

For the compound `Cc1ccc(S(=O)(=O)NC(=O)NN2CC3CCCC3C2)cc1` (stereo not given) [GLICLAZIDE], the “Bacterial Biotransformation” value is “Compound metabolized”.

For the next data set the following is noted: bacteroides fragilis, 12 h, 2 µM.
Description: The drug is tested on Bacteroides fragilis strain: NCTC 9343 for biotransformation. The drug concentrations were measured before and after a 12-h incubation by liquid-chromatography-coupled mass spectrometry (LC–MS)
With `CCC(C)n1ncn(-c2ccc(N3CCN(c4ccc(OCC5COC(Cn6cncn6)(c6ccc(Cl)cc6Cl)O5)cc4)CC3)cc2)c1=O` (stereo not given) [ITRACONAZOLE], the “Bacterial Biotransformation” value is “Compound NOT metabolized”.

Regarding `Cc1ccc(S(=O)(=O)NC(=O)NN2CC3CCCC3C2)cc1` (stereo not given) [GLICLAZIDE], the “Bacterial Biotransformation” value was “Compound NOT metabolized”.

A further data set can be described thus: The drug is tested on Eubacterium ventriosum strain: ATCC27560 for biotransformation. The drug concentrations were measured before and after a 12-h incubation by liquid-chromatography-coupled mass spectrometry (LC–MS). It counts as ADME. Set-up: dose 2 uM, timepoint 0 vs 12 hours. Conditions: 2 µM.
Turning to `CCC(C)n1ncn(-c2ccc(N3CCN(c4ccc(OCC5COC(Cn6cncn6)(c6ccc(Cl)cc6Cl)O5)cc4)CC3)cc2)c1=O` (stereo not given) [ITRACONAZOLE], the “Bacterial Biotransformation” value is “Compound NOT metabolized”.

For `Cc1ccc(S(=O)(=O)NC(=O)NN2CC3CCCC3C2)cc1` (stereo not given) [GLICLAZIDE], the “Bacterial Biotransformation” value is reported as “Compound NOT metabolized”.

Another data set in a line: The drug is tested on Bacteroides finegoldii strain: DSM17565 for biotransformation. The drug concentrations were measured before and after a 12-h incubation by liquid-chromatography-coupled mass spectrometry (LC–MS). Particulars: 2 µM.
As for `CCC(C)n1ncn(-c2ccc(N3CCN(c4ccc(OCC5COC(Cn6cncn6)(c6ccc(Cl)cc6Cl)O5)cc4)CC3)cc2)c1=O` (stereo not given) [ITRACONAZOLE], the “Bacterial Biotransformation” value is “Compound NOT metabolized”.

Take `Cc1ccc(S(=O)(=O)NC(=O)NN2CC3CCCC3C2)cc1` (stereo not given) [GLICLAZIDE]: the “Bacterial Biotransformation” value was “Compound NOT metabolized”.

A further data set is described as follows: The drug is tested on Bacteroides fragilis strain: HMW615 for biotransformation. The drug concentrations were measured before and after a 12-h incubation by liquid-chromatography-coupled mass spectrometry (LC–MS). Particulars: 2 µM.
Regarding `CCC(C)n1ncn(-c2ccc(N3CCN(c4ccc(OCC5COC(Cn6cncn6)(c6ccc(Cl)cc6Cl)O5)cc4)CC3)cc2)c1=O` (stereo not given) [ITRACONAZOLE], the “Bacterial Biotransformation” value is listed as “Compound NOT metabolized”.

For `Cc1ccc(S(=O)(=O)NC(=O)NN2CC3CCCC3C2)cc1` (stereo not given) [GLICLAZIDE], the “Bacterial Biotransformation” value is given as “Compound NOT metabolized”.

Another data set in a line: The drug is tested on Anaerotruncus colihominis strain: DSM17241 for biotransformation. The drug concentrations were measured before and after a 12-h incubation by liquid-chromatography-coupled mass spectrometry (LC–MS). Conditions: 2 µM.
Turning to `CCC(C)n1ncn(-c2ccc(N3CCN(c4ccc(OCC5COC(Cn6cncn6)(c6ccc(Cl)cc6Cl)O5)cc4)CC3)cc2)c1=O` (stereo not given) [ITRACONAZOLE], the “Bacterial Biotransformation” value is reported as “Compound NOT metabolized”.

As for `Cc1ccc(S(=O)(=O)NC(=O)NN2CC3CCCC3C2)cc1` (stereo not given) [GLICLAZIDE], the “Bacterial Biotransformation” value was “Compound NOT metabolized”.

Another data set in a line: The drug is tested on Collinsella aerofaciens strain: ATCC25986 for biotransformation. The drug concentrations were measured before and after a 12-h incubation by liquid-chromatography-coupled mass spectrometry (LC–MS). Particulars: 2 µM.
Turning to `CCC(C)n1ncn(-c2ccc(N3CCN(c4ccc(OCC5COC(Cn6cncn6)(c6ccc(Cl)cc6Cl)O5)cc4)CC3)cc2)c1=O` (stereo not given) [ITRACONAZOLE], the “Bacterial Biotransformation” value was “Compound NOT metabolized”.

Turning to `Cc1ccc(S(=O)(=O)NC(=O)NN2CC3CCCC3C2)cc1` (stereo not given) [GLICLAZIDE], the “Bacterial Biotransformation” value is listed as “Compound NOT metabolized”.

A short description of another data set: The drug is tested on Providencia stuartii strain: ATCC25827 for biotransformation. The drug concentrations were measured before and after a 12-h incubation by liquid-chromatography-coupled mass spectrometry (LC–MS). Particulars: 2 µM.
Turning to `CCC(C)n1ncn(-c2ccc(N3CCN(c4ccc(OCC5COC(Cn6cncn6)(c6ccc(Cl)cc6Cl)O5)cc4)CC3)cc2)c1=O` (stereo not given) [ITRACONAZOLE], the “Bacterial Biotransformation” value is given as “Compound NOT metabolized”.

Regarding `Cc1ccc(S(=O)(=O)NC(=O)NN2CC3CCCC3C2)cc1` (stereo not given) [GLICLAZIDE], the “Bacterial Biotransformation” value is “Compound NOT metabolized”.
